Test [1] deals with MLKL phosphorylation in HT29-L23 human colorectal adenocarcinoma cells. In words: MLKL Phosphorylation High-Content Assay. In kind it is cell-based. The following applies: Homo sapiens. Put shortly: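 IC50 and Ymax obtained by 4-parameter logistic fitting of MLKL phosphorylation, measured as mean circ-ring average intensity ratio from high-content images. Staining used an anti-phospho-S358 MLKL antibody overnight at 4° C., following six-hour cell incubation at 37° C.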

Test [2] concerns the target T1, His-GST-TVMV-hRIPK1(1-324) (Homo sapiens, UniProt Q13546).
T1 construct: The coding region of human RIPK1(1-324) flanked by NdeI site at 5′ end; made in house; host or cells: Spodoptera frugiperda (Sf9) insect cells, baculovirus
T1 sequence (Q13546 1-324): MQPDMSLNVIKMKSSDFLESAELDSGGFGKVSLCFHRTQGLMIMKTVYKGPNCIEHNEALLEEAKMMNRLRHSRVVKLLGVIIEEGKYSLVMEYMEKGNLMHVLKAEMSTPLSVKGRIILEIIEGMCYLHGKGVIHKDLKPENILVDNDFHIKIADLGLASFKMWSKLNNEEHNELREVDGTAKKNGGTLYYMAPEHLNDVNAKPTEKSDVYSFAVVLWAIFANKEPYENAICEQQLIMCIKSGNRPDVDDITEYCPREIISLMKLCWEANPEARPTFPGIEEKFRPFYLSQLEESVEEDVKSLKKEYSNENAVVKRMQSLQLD
In words: RIPK1 HTRF Binding Assay. In general terms: In TR-FRET formats the signal depends on donor and acceptor labels being close together.

Where [3] appears, read: x marks IC50 class 20-200 nM, read-out: pMLKL cell activity 20-200 nM.
Where [4] appears, read: x marks IC50 class <20 nM, read-out: RIPK1 HTRF binding <20 nM.
Setting [5] is: x marks IC50 class 20-200 nM, read-out: RIPK1 HTRF binding 20-200 nM.
Setting [6] is: x marks IC50 class <20 nM, read-out: pMLKL cell activity <20 nM.
Where [7] appears, read: x marks IC50 class >200 nM, read-out: pMLKL cell activity >200 nM.

Where two headings read alike, the source gives them in different places.

As for `[2H]C([2H])([2H])Oc1ncc(-c2ccn3nc(N)nc3c2)cc1C(=O)NC([2H])([2H])c1cc(C(F)(F)F)ccc1F` [Example 284, 5-(2-amino-[1,2,4]triazolo[1,5-a]pyridin-7-yl)-N-((2-fluoro-5-(trifluoromethyl)phenyl)methyl-d2)-2-(methoxy-d3)nicotinamide], the results for the IC50 in test [1] (setting [3]) and in test [2] (setting [4]) were 20 to 200 nM and less than 20 nM, respectively.
As to `[2H]C([2H])([2H])Oc1ncc(-c2ccn3nc(N)nc3c2)cc1C(=O)N[C@H](C)c1cc(OC(F)(F)F)ccc1F` [Example 285, (R)-5-(2-amino-[1,2,4]triazolo[1,5-a]pyridin-7-yl)-N-(1-(2-fluoro-5-(trifluoromethoxy)phenyl)ethyl)-2-(methoxy-d3)nicotinamide], the IC50 in test [1] (setting [3]) and in test [2] (setting [5]) was 20 to 200 nM in each case.
As for `[2H]C([2H])([2H])[C@@H](NC(=O)c1cc(-c2ccn3nc(N)nc3c2)c(C)nc1C)c1cc(OC(F)(F)F)ccc1F` [Example 286, (R)-5-(2-amino-[1,2,4]triazolo[1,5-a]pyridin-7-yl)-N-(1-(2-fluoro-5-(trifluoromethoxy)phenyl)ethyl-2,2,2-d3)-2,6-dimethylnicotinamide], the IC50 in test [1] (setting [3]) was 20 to 200 nM; in test [2] (setting [4]), less than 20 nM.
Turning to `[2H]C([2H])(Oc1c(F)cc(F)cc1CNC(=O)c1cc(-c2ccn3nc(N)nc3c2)c(C)nc1C)C1CC1` [Example 287, 5-(2-amino-[1,2,4]triazolo[1,5-a]pyridin-7-yl)-N-(2-(cyclopropylmethoxy-d2)-3,5-difluorobenzyl)-2,6-dimethylnicotinamide], the IC50 in test [1] (setting [6]) and in test [2] (setting [4]) was less than 20 nM each time.
Regarding `[2H]C([2H])(NC(=O)c1cc(-c2ccn3nc(N)nc3c2)c(C)nc1C)c1cc(C(F)(F)F)ccc1F` [Example 288, 5-(2-amino-[1,2,4]triazolo[1,5-a]pyridin-7-yl)-N-((2-fluoro-5-(trifluoromethyl)phenyl)methyl-d2)-2,6-dimethylnicotinamide], the figures for the IC50 in test [1] (setting [3]) and in test [2] (setting [4]) were 20 to 200 nM and less than 20 nM, respectively.
In the same order, the values of `[2H]C([2H])([2H])[C@@H](NC(=O)c1cc(-c2ccn3nc(N)nc3c2)c(C)nc1C)c1cc(C(F)(F)F)ccc1F` [Example 289, (R)-5-(2-amino-[1,2,4]triazolo[1,5-a]pyridin-7-yl)-N-(l-(2-fluoro-5-(trifluoromethyl)phenyl)ethyl-2,2,2-d3)-2,6-dimethylnicotinamide] are 20 to 200 nM and less than 20 nM.
Regarding `Cc1nc(C)c(-c2ccn3nc(N)nc3c2)cc1C(=O)NCc1cc(OCC2CC2)ccc1F` [Example 290, 5-(2-amino-[1,2,4]triazolo[1,5-a]pyridin-7-yl)-N-(5-(cyclopropylmethoxy)-2-fluorobenzyl)-2,6-dimethylnicotinamide], the values for the IC50 in test [1] (setting [3]) and in test [2] (setting [4]) were 20 to 200 nM and less than 20 nM, respectively.
In the case of `Cc1nc(C)c(-c2ccn3nc(N)nc3c2)cc1C(=O)NCc1c(F)cccc1OCC(F)(F)F` [Example 291, 5-(2-amino-[1,2,4]triazolo[1,5-a]pyridin-7-yl)-N-(2-fluoro-6-(2,2,2-trifluoroethoxy)benzyl)-2,6-dimethylnicotinamide], the IC50 in test [1] (setting [3]) and in test [2] (setting [5]) was 20 to 200 nM throughout.
Turning to `Cc1nc(C)c(-c2ccn3nc(N)nc3c2)cc1C(=O)NCc1cc(F)ccc1OCC(F)(F)F` [Example 292, 5-(2-amino-[1,2,4]triazolo[1,5-a]pyridin-7-yl)-N-(5-fluoro-2-(2,2,2-trifluoroethoxy)benzyl)-2,6-dimethylnicotinamide], the IC50 in test [1] (setting [3]) and in test [2] (setting [5]) was 20 to 200 nM in each case.
Regarding `Cc1nc(C)c(-c2ccn3nc(N)nc3c2)cc1C(=O)NCc1cccc(OCC(F)(F)F)c1` [Example 293, 5-(2-amino-[1,2,4]triazolo[1,5-a]pyridin-7-yl)-2,6-dimethyl-N-(3-(2,2,2-trifluoroethoxy)benzyl)nicotinamide], the IC50 in test [1] (setting [3]) and in test [2] (setting [5]) was 20 to 200 nM throughout.
For the compound `Cc1nc(C)c(-c2ccn3nc(N)nc3c2)cc1C(=O)NCc1ccccc1OCC(F)(F)F` [Example 294, 5-(2-amino-[1,2,4]triazolo[1,5-a]pyridin-7-yl)-2,6-dimethyl-N-(2-(2,2,2-trifluoroethoxy)benzyl)nicotinamide], the results for the IC50 in test [1] (setting [7]) and in test [2] (setting [5]) were more than 200 nM and 20 to 200 nM, respectively.
In the case of `Cc1nc(C)c(-c2ccn3nc(N)nc3c2)cc1C(=O)NCc1cc(F)cc(F)c1OC1CCOC(C)C1` (stereo not drawn) [Example 296, 5-(2-amino-[1,2,4]triazolo[1,5-a]pyridin-7-yl)-N-(3,5-difluoro-2-((2-methyltetrahydro-2H-pyran-4-yl)oxy)benzyl)-2,6-dimethylnicotinamide], the IC50 in test [1] (setting [3]) and in test [2] (setting [5]) was 20 to 200 nM each time.
Turning to `Cc1nc(C)c(-c2ccn3nc(N)nc3c2)cc1C(=O)NCc1cc(F)cc(F)c1OC1CC(C)OC(C)C1` (stereo not drawn) [Example 297, 5-(2-amino-[1,2,4]triazolo[1,5-a]pyridin-7-yl)-N-(2-((2,6-dimethyltetrahydro-2H-pyran-4-yl)oxy)-3,5-difluorobenzyl)-2,6-dimethylnicotinamide], the IC50 in test [1] (setting [3]) and in test [2] (setting [5]) was 20 to 200 nM throughout.
Regarding `Cc1ncc(-c2ccn3nc(N)nc3c2)cc1C(=O)NCc1cc(F)ccc1-c1ccn(C)n1` [Example 298, 5-(2-amino-[1,2,4]triazolo[1,5-a]pyridin-7-yl)-N-(5-fluoro-2-(1-methyl-1H-pyrazol-3-yl)benzyl)-2-methylnicotinamide], the IC50 in test [1] (setting [7]) was more than 200 nM; in test [2] (setting [5]), 20 to 200 nM.
Take `[2H]C([2H])([2H])[C@@H](NC(=O)c1cc(-c2ccn3nc(N)nc3c2)cnc1C)c1cc(OC(F)(F)F)ccc1F` [Example 299, (R)-5-(2-amino-[1,2,4]triazolo[1,5-a]pyridin-7-yl)-N-(1-(2-fluoro-5-(trifluoromethoxy)phenyl)ethyl-2,2,2-d3)-2-methylnicotinamide]: the IC50 in test [1] (setting [6]) and in test [2] (setting [4]) was less than 20 nM throughout.
As to `[2H]C([2H])([2H])[C@H](NC(=O)c1cc(-c2ccn3nc(N)nc3c2)cnc1C)c1cc(OC(F)(F)F)ccc1F` [Example 300, (S)-5-(2-amino-[1,2,4]triazolo[1,5-a]pyridin-7-yl)-N-(1-(2-fluoro-5-(trifluoromethoxy)phenyl)ethyl-2,2,2-H3)-2-methylnicotinamide], the IC50 in test [1] (setting [6]) and in test [2] (setting [4]) was less than 20 nM throughout.
In the case of `Cc1ncc(-c2ccn3nc(N)nc3c2)cc1C(=O)NCc1cc(F)cc(F)c1OCC(C)C` [Example 301, 5-(2-amino-[1,2,4]triazolo[1,5-a]pyridin-7-yl)-N-(3,5-difluoro-2-isobutoxybenzyl)-2-methylnicotinamide], the IC50 was 20 to 200 nM in test [1] (setting [3]) and less than 20 nM in test [2] (setting [4]).
In the same order, the values of `[2H]C([2H])([2H])[C@H](NC(=O)c1cc(-c2ccn3nc(N)nc3c2)cnc1C)c1cc(C(F)(F)F)ccc1F` [Example 302, (S)-5-(2-amino-[1,2,4]triazolo[1,5-a]pyridin-7-yl)-N-(1-(2-fluoro-5-(trifluoromethyl)phenyl)ethyl-2,2,2-H3)-2-methylnicotinamide] are 20 to 200 nM and less than 20 nM.
Take `[2H]C([2H])([2H])[C@@H](NC(=O)c1cc(-c2ccn3nc(N)nc3c2)cnc1C)c1cc(C(F)(F)F)ccc1F` [Example 303, (R)-5-(2-amino-[1,2,4]triazolo[1,5-a]pyridin-7-yl)-N-(1-(2-fluoro-5-(trifluoromethyl)phenyl)ethyl-2,2,2-H3)-2-methylnicotinamide]: the IC50 in test [1] (setting [3]) was 20 to 200 nM; in test [2] (setting [4]), less than 20 nM.
On to `Cc1ncc(-c2ccn3nc(N)nc3c2)cc1C(=O)NCc1c(OCC2CC2)ccc(F)c1F` [Example 304, 5-(2-amino-[1,2,4]triazolo[1,5-a]pyridin-7-yl)-N-(6-(cyclopropylmethoxy)-2,3-difluorobenzyl)-2-methylnicotinamide], for which the IC50 in test [1] (setting [3]) was 20 to 200 nM; in test [2] (setting [4]) it was less than 20 nM.
With `Cc1ncc(-c2ccn3nc(N)nc3c2)cc1C(=O)NCc1ccccc1OCC(C)C` [Example 305, 5-(2-amino-[1,2,4]triazolo[1,5-a]pyridin-7-yl)-N-(2-isobutoxybenzyl)-2-methylnicotinamide], the IC50 in test [1] (setting [3]) and in test [2] (setting [5]) was 20 to 200 nM in each case.
`Cc1ncc(-c2ccn3nc(N)nc3c2)cc1C(=O)NCc1c(F)cccc1OCC(F)(F)F` [Example 306, 5-(2-amino-[1,2,4]triazolo[1,5-a]pyridin-7-yl)-N-(2-fluoro-6-(2,2,2-trifluoroethoxy)benzyl)-2-methylnicotinamide]: the IC50 in test [1] (setting [3]) and in test [2] (setting [5]) was 20 to 200 nM throughout.
As for `[2H]C([2H])(NC(=O)c1cc(-c2ccn3nc(N)nc3c2)cnc1C)c1cc(C(F)(F)F)ccc1F` [Example 307, 5-(2-amino-[1,2,4]triazolo[1,5-a]pyridin-7-yl)-N-((2-fluoro-5-(trifluoromethyl)phenyl)methyl-H2)-2-methylnicotinamide], the figures for the IC50 in test [1] (setting [3]) and in test [2] (setting [4]) were 20 to 200 nM and less than 20 nM, respectively.
Regarding `Cc1ncc(-c2ccn3nc(N)nc3c2)cc1C(=O)NCc1cc(F)cc(F)c1OC1CC1` [Example 308, 5-(2-amino-[1,2,4]triazolo[1,5-a]pyridin-7-yl)-N-(2-cyclopropoxy-3,5-difluorobenzyl)-2-methylnicotinamide], the IC50 in test [1] (setting [3]) and in test [2] (setting [5]) was 20 to 200 nM each time.

Source of the values: patent publication US10913738B2 (BRISTOL-MYERS SQUIBB COMPANY, priority 2017, dated 2021).
